Values of other authors in US20250144250A1, “PH-SENSITIVE FLUOROPHORES” (The General Hospital Corporation, priority 2022, published 2025).

Conditions: in DMSO; cited from earlier work

Structure (SMILES): CC1(C)C(/C=C/C=C/C=C/C=C2\N(CCCCS(=O)(=O)O)c3ccc4ccccc4c3C2(C)C)=[N+](CCCCS(=O)(=O)[O-])c2ccc3ccccc3c21 [ICG, indocyanine green]
- fluorescence QY of calibration standard: 13%
